Read-outs that look alike come from different tables or passages of the source. Square brackets hold non-standard residues; d marks the D form. Peptide text beside a SMILES is read from it. * marks the point of attachment. dPhe(4-Cl) = N[C@H](Cc1ccc(Cl)cc1)C(=O)O; Nicotinoyl(6-NH2) = Nc1ccc(C(=O)*)cn1; d1Nal = N[C@H](Cc1cccc2ccccc12)C(=O)O; Lys(iPr) = CC(C)NCCCC[C@H](N)C(=O)O; d3Pal = N[C@H](Cc1cccnc1)C(=O)O; Picolinoyl = O=C(c1ccccn1)*; dOrn = NCCC[C@@H](N)C(=O)O
Experiments:
[1] = Water solubility at room temperature; assay type: physicochemical
Description: Solubility of the novel GnRH antagonist was compared with that of orntide acetate at room temperature. In this experiment, 50 mg of the novel GnRH antagonist was weighed into a small glass container and 2 mL of purified water was added to it. […] An additional 3 mL of water was added, the solution mixed, and the pH was determined: 5.4. The same procedure was used to test the solubility of orntide acetate (known in the art as ornirelix).
Separately, another 50 mg aliquot was weighed out and 1 ml of water was added. This also dissolved. This is 50 mg/mL in concentration, which is 10 times what is possible to dissolve with orntide acetate.

[2] = system: testosterone; assay: Testosterone suppression in vivo in the standard experimental rat model; parameters: species or system male Sprague Dawley rats; conditions: subcutaneous
Description: Briefly, male Sprague Dawley rats weighing approximately 300 g were purchased from Harlan (Indianapolis, Ind.) and used immediately after the quarantine period required by a University of Kentucky Animal Research Facility approved protocol.
The evaluation was conducted in two groups of rats. Group 1 included 6 rats to be administered with the novel GnRH antagonist. The other group was a control group consisting of 2 rats. The novel GnRH antagonist was administered subcutaneously (scapulae). Blood samples (1 mL) for testosterone level determinations were collected from the tail vein at 0, 1, 3, 6, 12, 24, and 48 hours. Serum was extracted by centrifugation at 2000 rpm for 15 min and stored at −20 C until determination of testosterone/LH levels. Rat plasma testosterone was determined using Active™ Testosterone RIA DSL-4000 kits purchased from Diagnostic Systems, Inc. Webster, Tex. To effect a sufficient washout period the doses were administered at weekly intervals.
A total of six rats were used for each dose tested. In the first week, each rat received a single dose of 15 μg. In the second week, the dose increased to 30 μg. Next, in the third week, each rat received a single dose of 60 μg. Table 2 is the control rat group with a total of 2 rats that received only vehicle.

Molecule | solubility ([1]; aqueous media, even at a pH lower than 5, read-out: solubility in aqueous media) [µg/mL] | gelling in aqueous media ([1]; at concentrations less than 5 mg/mL) | solubility ([1]; water, pH 5, at a pH of 5, read-out: water solubility) [µg/mL] | testosterone level reached after the castration period ([2]; 15 μg/rat, after about 12 hours) [ng/mL] | duration of chemical castration of testosterone (≦0.5 ng/ml) ([2]; 15 μg/rat, single dose) | serum testosterone level at 6 hours ([2]; 15 μg/rat, single dose, week 1, mean of 6 rats) [ng/mL] | testosterone level by 24 hours ([2]; 30 μg/rat, single dose) | duration of testosterone suppression ([2]; 30 μg/rat, single dose, week 2) | time to dissolve ([1]; 50 mg in 2 mL purified water, relatively gentle mixing, room temperature) | pH of the solution ([1]; 50 mg in 5 mL water (10 mg/mL))
CC(=O)N[C@H](Cc1cccc2ccccc12)C(=O)N[C@H](Cc1ccc(Cl)cc1)C(=O)N[C@H](Cc1cccnc1)C(=O)N[C@@H](CO)C(=O)N[C@@H](CCCCNC(=O)c1ccccn1)C(=O)N[C@H](CCCNC(=O)c1ccc(N)nc1)C(=O)N[C@@H](CC(C)C)C(=O)N[C@@H](CCCCNC(C)C)C(=O)N1CCC[C@H]1C(=O)N[C@H](C)C(N)=O [orntide acetate, DNal^1, DpCIPhe^2, D3Pal^3 Ser^4, PicLys^5, D(6ANic)Orn^6, Leu^7, IprLys^8, Pro^9, DAla^10-NH2] (Ac-[d1Nal][dPhe(4-Cl)][d3Pal]SK(Picolinoyl)[dOrn](Nicotinoyl(6-NH2))L[Lys(iPr)]P[dA]-NH2; N-terminus and C-terminus assumed) | < 5000 | tends to gel even at that low concentration | < 5000 |  |  |  |  |  |  | 
AcDNal^1, DpCIPhe^2, D3Pal^3 Ser^4, NicLys^5, D(6ANic)Orn^6, Leu^7, IprLys^8, Pro^9, DAla^10NH2 [novel GnRH antagonist] |  |  |  | 1.5 | about 12 hours | 0.2 | greater than 0.5 ng/mL | at least 12 hours | less than 30 seconds | 5.4
